Results published in ChEMBL document CHEMBL5053537, “Next generation Glucose-1-phosphate thymidylyltransferase (RmlA) inhibitors: An extended SAR study to direct future design” (Bioorg Med Chem, 2021).
Values after ≈ are worked out from the molar mass of the structure shown.

Key:
[1] = system: Pseudomonas aeruginosa; assay: Inhibition of N-terminal His-tagged Pseudomonas aeruginosa RmIA expressed in Escherichia coli BL21 (lambdaDE3) at 10 uM using dTTP and G-1-P as substrates incubated for 30 mins by Biomol green reagent based assay relative to control
[2] = system: Mycobacterium tuberculosis; assay: Antimycobacterial activity against Mycobacterium tuberculosis assessed as inhibition of bacterial growth; assay type: functional; conditions: read-out: MIC100
[3] = Inhibition of N-terminal His-tagged Pseudomonas aeruginosa RmIA expressed in Escherichia coli BL21 (lambdaDE3) using dTTP and G-1-P as substrates incubated for 30 mins by Biomol green reagent based assay

Row | SMILES | inhibition [1] [%] | also measured
1 | CNCCCNc1c(N(C)S(=O)(=O)c2ccccc2)c(=O)[nH]c(=O)n1Cc1ccc(Br)cc1 | 100 | –
2 | CN(c1c(NCCCCCN)n(Cc2ccc(Br)cc2)c(=O)[nH]c1=O)S(=O)(=O)c1ccccc1 | 100 | –
3 | CN(c1c(N)n(Cc2ccc(Br)cc2)c(=O)[nH]c1=O)S(=O)(=O)c1ccccc1 | 100 | –
4 | CN(c1c(N)n(Cc2ccccc2)c(=O)[nH]c1=O)S(=O)(=O)c1ccccc1 | – | MIC [2]: 100 µg/mL (≈ 259 µM)
5 | CN(c1c(NCCCn2cc(CN)nn2)n(Cc2ccccc2)c(=O)[nH]c1=O)S(=O)(=O)c1ccccc1 | 100 | –
6 | CNCCNc1c(N(C)S(=O)(=O)c2ccccc2)c(=O)[nH]c(=O)n1Cc1ccc(Br)cc1 | – | IC50 [3]: 0.096 µM
7 | CN(c1c(NCCCCN)n(Cc2ccc(Br)cc2)c(=O)[nH]c1=O)S(=O)(=O)c1ccccc1 | 100 | –
